“And” between values parts separate entries of the source, which are not always exact repeats. Identical values can stand only once.

The target of one experiment is Ba/F3-EGFR-WT cells (Homo sapiens, UniProt P00533). The experiment is described as follows: Ba/F3 cell survival assay, wild type EGFR. Conditions: Cell Titer-Glo, 48 h, with 10 ng/mL EGF; Table 4; read-out: BA/F3 (wild type) IC50. It is filed as cell-based.
Another experiment addresses T1, Bub1 (Homo sapiens, UniProt O43683).
T1 construct: catalytic domain of human Bub1 (amino acids 704-1085); His6 (N); made in house; host or cells: insect cells (Hi5)
Kind of experiment: Bub1 high ATP kinase assay (TR-FRET). Conditions: Bub1 high ATP (2 mM) IC50, TR-FRET, 2 mM ATP; Table 3. The class given is biochemical. Summed up: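 Read-out was the 665/620 nm TR-FRET ratio after 1 h at 22 °C with EDTA stop mix (streptavidin-XL665, anti-phosphoserine antibody, Eu anti-mouse IgG). Beforehand, a biotinylated peptide was phosphorylated for 60 min at 22 °C under high ATP by His6-tagged human Bub1 residues 704-1085 expressed in Hi5 cells, about 200 ng/ml.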

Experiment [1] addresses T2, EGFR with insertion SVD between D770 and N771 (mutEGFR D770_N771insSVD) (Homo sapiens, UniProt P00533, DUP768-770).
T2 construct: amino acids R669 to A1210; made in house; host or cells: Sf9 insect cells (baculovirus)
Kind of experiment: Exon20-Mutant-EGFR(D770_N771insSVD) kinase assay (TR-FRET). The class given is biochemical. The conditions noted are these: 2 mM ATP, Table 2.

Experiment [2] has as its target Ba/F3-EGFR-D770_N771insSVD cells (Homo sapiens, UniProt P00533, DUP768-770, cells depend on it). Kind of experiment: Ba/F3 cell survival assay, EGFR D770_N771insSVD. Conditions: Cell Titer-Glo, 48 h, without IL-3; Table 4; read-out: BA/F3 (insSVD) IC50. It is filed as cell-based.

Chain of Ba/F3-EGFR-D770_N771insSVD cells (P00533 with tags, fused parts or gaps DUP768-770): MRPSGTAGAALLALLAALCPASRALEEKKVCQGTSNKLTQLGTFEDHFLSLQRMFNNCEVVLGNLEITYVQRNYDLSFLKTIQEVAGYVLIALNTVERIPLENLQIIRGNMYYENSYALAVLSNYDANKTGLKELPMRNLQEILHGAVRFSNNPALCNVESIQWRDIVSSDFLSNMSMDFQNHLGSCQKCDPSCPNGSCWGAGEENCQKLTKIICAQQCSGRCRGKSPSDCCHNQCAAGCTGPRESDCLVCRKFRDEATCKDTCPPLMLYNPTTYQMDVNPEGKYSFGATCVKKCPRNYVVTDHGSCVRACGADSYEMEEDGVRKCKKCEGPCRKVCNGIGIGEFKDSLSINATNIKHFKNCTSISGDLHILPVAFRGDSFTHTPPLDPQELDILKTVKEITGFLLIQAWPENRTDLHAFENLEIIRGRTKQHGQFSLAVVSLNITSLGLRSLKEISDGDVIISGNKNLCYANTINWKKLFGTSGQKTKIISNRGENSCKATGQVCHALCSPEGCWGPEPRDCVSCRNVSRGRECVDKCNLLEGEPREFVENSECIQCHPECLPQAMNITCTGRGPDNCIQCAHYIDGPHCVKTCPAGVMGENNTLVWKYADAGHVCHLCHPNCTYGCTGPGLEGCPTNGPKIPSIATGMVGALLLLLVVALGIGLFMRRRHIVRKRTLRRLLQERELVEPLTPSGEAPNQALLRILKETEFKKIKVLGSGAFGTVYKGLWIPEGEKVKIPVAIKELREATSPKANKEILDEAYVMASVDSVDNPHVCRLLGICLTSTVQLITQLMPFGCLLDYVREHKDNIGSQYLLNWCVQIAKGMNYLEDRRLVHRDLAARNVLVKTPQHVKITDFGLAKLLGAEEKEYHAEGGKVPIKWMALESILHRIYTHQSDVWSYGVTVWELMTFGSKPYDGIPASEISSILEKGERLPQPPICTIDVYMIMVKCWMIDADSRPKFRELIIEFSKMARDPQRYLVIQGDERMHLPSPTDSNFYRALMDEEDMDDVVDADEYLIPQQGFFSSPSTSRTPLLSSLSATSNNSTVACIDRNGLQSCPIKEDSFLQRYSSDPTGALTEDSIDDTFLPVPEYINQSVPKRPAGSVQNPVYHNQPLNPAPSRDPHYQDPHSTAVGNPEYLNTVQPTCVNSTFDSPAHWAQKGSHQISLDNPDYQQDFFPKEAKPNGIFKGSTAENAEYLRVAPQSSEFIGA
T1 sequence (O43683 704-1085): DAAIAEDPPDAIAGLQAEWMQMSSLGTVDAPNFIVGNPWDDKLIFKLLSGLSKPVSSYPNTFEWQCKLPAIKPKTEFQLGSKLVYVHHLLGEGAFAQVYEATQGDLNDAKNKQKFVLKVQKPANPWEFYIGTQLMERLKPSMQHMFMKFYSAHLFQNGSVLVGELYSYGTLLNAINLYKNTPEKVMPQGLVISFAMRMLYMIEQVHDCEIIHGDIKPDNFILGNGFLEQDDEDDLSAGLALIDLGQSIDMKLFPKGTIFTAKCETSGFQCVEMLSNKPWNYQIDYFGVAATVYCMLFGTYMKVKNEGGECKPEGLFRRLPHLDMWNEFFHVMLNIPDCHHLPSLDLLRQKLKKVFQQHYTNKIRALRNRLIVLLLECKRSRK
T2 sequence (P00533 other isoform, or with tags, fused parts or gaps DUP768-770): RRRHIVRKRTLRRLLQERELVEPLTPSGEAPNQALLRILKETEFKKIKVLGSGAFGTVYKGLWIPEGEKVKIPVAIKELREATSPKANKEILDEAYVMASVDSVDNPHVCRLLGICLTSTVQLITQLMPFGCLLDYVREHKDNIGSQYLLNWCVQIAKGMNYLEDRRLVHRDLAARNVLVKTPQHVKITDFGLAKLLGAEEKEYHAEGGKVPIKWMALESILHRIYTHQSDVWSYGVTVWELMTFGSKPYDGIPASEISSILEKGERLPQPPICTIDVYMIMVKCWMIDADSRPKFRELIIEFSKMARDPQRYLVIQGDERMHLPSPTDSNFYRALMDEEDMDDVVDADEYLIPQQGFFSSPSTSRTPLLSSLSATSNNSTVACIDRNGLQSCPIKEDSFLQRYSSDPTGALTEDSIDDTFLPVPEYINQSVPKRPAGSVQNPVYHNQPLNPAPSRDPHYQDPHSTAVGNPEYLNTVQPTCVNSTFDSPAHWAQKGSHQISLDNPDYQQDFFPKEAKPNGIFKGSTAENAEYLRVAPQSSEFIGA
Chain of Ba/F3-EGFR-WT cells (P00533 whole entry, looked up, change not shown): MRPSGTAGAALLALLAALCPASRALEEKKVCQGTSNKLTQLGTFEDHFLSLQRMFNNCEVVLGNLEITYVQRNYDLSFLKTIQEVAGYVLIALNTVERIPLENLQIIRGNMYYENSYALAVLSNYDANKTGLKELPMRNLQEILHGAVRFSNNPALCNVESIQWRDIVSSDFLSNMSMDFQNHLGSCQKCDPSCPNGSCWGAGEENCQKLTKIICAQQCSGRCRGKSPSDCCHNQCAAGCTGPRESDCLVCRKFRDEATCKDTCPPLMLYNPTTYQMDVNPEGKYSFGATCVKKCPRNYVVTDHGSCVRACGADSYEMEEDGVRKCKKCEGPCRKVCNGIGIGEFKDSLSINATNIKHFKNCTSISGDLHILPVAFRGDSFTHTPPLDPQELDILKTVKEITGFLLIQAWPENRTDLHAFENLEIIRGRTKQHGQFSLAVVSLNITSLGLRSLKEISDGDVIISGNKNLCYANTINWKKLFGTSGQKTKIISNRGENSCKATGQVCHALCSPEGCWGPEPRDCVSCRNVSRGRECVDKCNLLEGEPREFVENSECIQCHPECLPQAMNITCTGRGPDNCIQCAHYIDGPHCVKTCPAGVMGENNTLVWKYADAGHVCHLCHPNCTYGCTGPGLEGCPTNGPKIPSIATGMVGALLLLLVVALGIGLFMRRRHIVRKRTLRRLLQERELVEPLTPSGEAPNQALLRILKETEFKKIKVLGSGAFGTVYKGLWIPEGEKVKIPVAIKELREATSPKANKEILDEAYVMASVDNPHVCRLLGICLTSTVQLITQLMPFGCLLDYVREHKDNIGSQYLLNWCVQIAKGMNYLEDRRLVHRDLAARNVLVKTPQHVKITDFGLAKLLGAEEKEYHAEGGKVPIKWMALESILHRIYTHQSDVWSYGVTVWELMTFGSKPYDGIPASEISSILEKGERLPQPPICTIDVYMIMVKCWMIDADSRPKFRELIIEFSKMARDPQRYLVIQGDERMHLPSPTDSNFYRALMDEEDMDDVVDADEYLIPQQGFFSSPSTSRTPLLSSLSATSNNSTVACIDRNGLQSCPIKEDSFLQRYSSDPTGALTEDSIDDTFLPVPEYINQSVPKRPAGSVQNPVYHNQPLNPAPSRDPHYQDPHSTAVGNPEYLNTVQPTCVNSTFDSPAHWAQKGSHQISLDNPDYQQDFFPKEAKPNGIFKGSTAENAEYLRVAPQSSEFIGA

Take `COc1c(Cl)cccc1Nc1c(-c2ccncc2OCC(C)(C)OC)[nH]c2c1C(=O)NCC2CCO` (centres unmarked) [Example 13, 3-(3-chloro-2-methoxyanilino)-7-(2-hydroxyethyl)-2-[3-(2-methoxy-2-methylpropoxy)pyridin-4-yl]-1,5,6,7-tetrahydro-4H-pyrrolo[3,2-c]pyridin-4-one]: the GI50 was found to be 339 nM on Ba/F3-EGFR-WT cells and 35 nM in experiment [2]. On Bub1, this compound had an IC50 of 3630 nM. For the same compound, the “mutEGFR (D770_N771insSVD) kinase assay IC50” value (“mutEGFR” for short) in experiment [1] turned out to be 0.189 nM.

Regarding `COc1c(Cl)cccc1Nc1c(-c2ccncc2OCC2(C)CCO2)[nH]c2c1C(=O)NCC2CCO` (centres unmarked) [Example 19, 3-(3-chloro-2-methoxyanilino)-7-(2-hydroxyethyl)-2-{3-[(2-methyloxetan-2-yl)methoxy]pyridin-4-yl}-1,5,6,7-tetrahydro-4H-pyrrolo[3,2-c]pyridin-4-one], the results for the GI50 (at Ba/F3-EGFR-WT cells; in experiment [2]) were 684 nM and 86.5 nM, respectively. The same compound showed an IC50 on Bub1 of 13500 nM. Besides, in experiment [1], the “mutEGFR” value was 0.279 nM.

As for `COc1c(Cl)cccc1Nc1c(-c2ccncc2OCC2COCCO2)[nH]c2c1C(=O)NCC2C` (centres unmarked) [Example 33, 3-(3-chloro-2-methoxy-anilino)-2-[3-(1,4-dioxan-2-ylmethoxy)-4-pyridyl]-7-methyl-1,5,6,7-tetrahydropyrrolo[3,2-c]pyridin-4-one], the GI50 amounted to 844 nM on Ba/F3-EGFR-WT cells and 73.1 nM in experiment [2]. The compound also displayed a half-inhibitory concentration (IC50) against Bub1 of 5160 nM. For the same compound, the “mutEGFR” value in experiment [1] is 0.201 nM.

As for `COc1c(Cl)cccc1Nc1c(-c2ccncc2OCC2CCCCO2)[nH]c2c1C(=O)NCC2C` (centres unmarked) [Example 44, 3-(3-chloro-2-methoxy-anilino)-7-methyl-2-[3-(tetrahydropyran-2-ylmethoxy)-4-pyridyl]-1,5,6,7-tetrahydropyrrolo[3,2-c]pyridin-4-one], the GI50 at Ba/F3-EGFR-WT cells stood at 594 nM; in experiment [2], 40.5 nM. This compound also displayed an IC50 at Bub1 of 6450 nM. In addition, the “mutEGFR” value in experiment [1] was 0.195 nM.

Turning to `COCC(C)Oc1cnccc1-c1[nH]c2c(c1Nc1cccc(Cl)c1OC)C(=O)N[C@@H]1CCC[C@H]21` (stereo partly drawn) [Example 49, (5aR,8aS)-3-(3-chloro-2-methoxyanilino)-2-{3-[(1-methoxypropan-2-yl)oxy]-4-pyridyl}-5,5a,6,7,8,8a-hexahydrocyclopenta[b]pyrrolo[2,3-d]pyridin-4(1)-one], the figures for the GI50 (on Ba/F3-EGFR-WT cells; in experiment [2]) were 291 nM and 33.1 nM, respectively. The compound also registered an IC50 against Bub1 of 13200 nM. Also, the “mutEGFR” value in experiment [1] is 0.275 nM.

With `COc1c(Cl)cccc1Nc1c(-c2ccncc2OC[C@@H]2CCCO2)[nH]c2c1C(=O)N[C@@H]1CCC[C@H]21` [Example 56, (5aR,8aS)-3-(3-chloro-2-methoxyanilino)-2-(3-{[(2S)-oxolan-2-yl]methoxy}-4-pyridyl)-5,5a,6,7,8,8a-hexahydrocyclopenta[b]pyrrolo[2,3-d]pyridin-4(1H)-one], the values for the GI50 (on Ba/F3-EGFR-WT cells; in experiment [2]) were 693 nM and 51.5 nM, respectively. Besides, on Bub1, the IC50 was 18500 nM and 18800 nM and > 20000 nM. Besides, in experiment [1], the “mutEGFR” value is 0.194 nM.

For `COc1c(Cl)cccc1Nc1c(-c2ccncc2OC[C@@H]2CCCO2)[nH]c2c1C(=O)N[C@H]1CCC[C@@H]21` [Example 57, (5aS,8aR)-3-(3-chloro-2-methoxyanilino)-2-(3-{[(2S)-oxolan-2-yl]methoxy}pyridin-4-yl)-5,5a,6,7,8,8a-hexahydrocyclopenta[b]pyrrolo[2,3-d]pyridin-4(1)-one], the GI50 is 1710 nM at Ba/F3-EGFR-WT cells and 195 nM in experiment [2]. Half-maximal inhibition against Bub1 (IC50) was put at 281 nM. In experiment [1], the “mutEGFR” value amounted to 0.246 nM.

As for `Cc1c(Cl)cccc1Nc1c(-c2ccncc2OCC2OCCCC2(F)F)[nH]c2c1C(=O)NCC2C` (centres unmarked) [Example 61, 3-(3-chloro-2-methyl-anilino)-2-[3-[(3,3-difluorotetrahydropyran-2-yl)methoxy]-4-pyridyl]-7-methyl-1,5,6,7-tetrahydropyrrolo[3,2-c]pyridin-4-one], the GI50 stood at 534 nM on Ba/F3-EGFR-WT cells and 20.5 nM in experiment [2]. Further, the IC50 on Bub1 amounted to 2700 nM. Moreover, in experiment [1], the “mutEGFR” value is 0.19 nM.

The values are drawn from patent US20230064983A1 (priority 2020, published 2023).
